Laboratory results from ChEMBL document CHEMBL5038570, “Discovery of Novel Pyrrolo[2,3-d]pyrimidine-based Derivatives as Potent JAK/HDAC Dual Inhibitors for the Treatment of Refractory Solid Tumors” (J Med Chem, 2022).
The source made the active and inactive calls. No cut-off for these calls is given here.

Legend:
MDA-MB-231 [1] = assay: Induction of apoptosis in human MDA-MB-231 cells assessed as viable cells at 2.5 uM measured after 48 hrs in presence of ruxolitinib by annexin V-FITC/propidium iodide staining based flow cytometry (reference value: 85.7%); type: functional
4T1 [2] = assay: Induction of apoptosis in mouse 4T1 cells assessed as viable cells at 5 uM measured after 48 hrs in presence of ruxolitinib by annexin V-FITC/propidium iodide staining based flow cytometry (reference value: 89.5%); type: functional
4T1 [3] = assay: Induction of apoptosis in mouse 4T1 cells assessed as rly apoptotic cells at 5 uM measured after 48 hrs in presence of ruxolitinib by annexin V-FITC/propidium iodide staining based flow cytometry (reference value: 1.12%); type: functional
[4] = biological target: Tyrosine-protein kinase JAK2 (Homo sapiens, UniProt O60674); assay: Inhibition of JAK2 (unknown origin) assessed as inhibition rate at 10 uM incubated for 60 mins by microplate reader analysis relative to control
4T1 [5] = assay: Induction of apoptosis in mouse 4T1 cells assessed as necrotic cells at 5 uM measured after 48 hrs in presence of ruxolitinib by annexin V-FITC/propidium iodide staining based flow cytometry (reference value: 4.35%); type: functional
MDA-MB-231 [6] = assay: Induction of apoptosis in human MDA-MB-231 cells assessed as viable cells at 2.5 uM measured after 48 hrs by annexin V-FITC/propidium iodide staining based flow cytometry (reference value: 85.7%); type: functional
4T1 [7] = assay: Induction of apoptosis in mouse 4T1 cells assessed as late apoptotic cells at 5 uM measured after 48 hrs in presence of ruxolitinib by annexin V-FITC/propidium iodide staining based flow cytometry (reference value: 4.99%); type: functional
4T1 [8] = assay: Induction of apoptosis in mouse 4T1 cells assessed as viable cells at 10 uM measured after 48 hrs by annexin V-FITC/propidium iodide staining based flow cytometry (reference value: 89.5%); type: functional
MDA-MB-231 [9] = type: functional, Mus musculus; conditions: dose 100 mg/kg; time 14 day
4T1 [10] = assay: Induction of apoptosis in mouse 4T1 cells assessed as late apoptotic cells at 10 uM measured after 48 hrs by annexin V-FITC/propidium iodide staining based flow cytometry (reference value: 4.99%); type: functional
MDA-MB-231 [11] = assay: Induction of apoptosis in human MDA-MB-231 cells assessed as necrotic cells at 10 uM measured after 48 hrs by annexin V-FITC/propidium iodide staining based flow cytometry (reference value: 5.38%); type: functional
[12] = biological target: T1, Protein deacetylase HDAC6 (Homo sapiens) (UniProt Q9UBN7); assay: Inhibition of HDAC6 (unknown origin) at 10 uM incubated for 60 min by microplate reader analysis relative to control
T1 sequence (whole entry): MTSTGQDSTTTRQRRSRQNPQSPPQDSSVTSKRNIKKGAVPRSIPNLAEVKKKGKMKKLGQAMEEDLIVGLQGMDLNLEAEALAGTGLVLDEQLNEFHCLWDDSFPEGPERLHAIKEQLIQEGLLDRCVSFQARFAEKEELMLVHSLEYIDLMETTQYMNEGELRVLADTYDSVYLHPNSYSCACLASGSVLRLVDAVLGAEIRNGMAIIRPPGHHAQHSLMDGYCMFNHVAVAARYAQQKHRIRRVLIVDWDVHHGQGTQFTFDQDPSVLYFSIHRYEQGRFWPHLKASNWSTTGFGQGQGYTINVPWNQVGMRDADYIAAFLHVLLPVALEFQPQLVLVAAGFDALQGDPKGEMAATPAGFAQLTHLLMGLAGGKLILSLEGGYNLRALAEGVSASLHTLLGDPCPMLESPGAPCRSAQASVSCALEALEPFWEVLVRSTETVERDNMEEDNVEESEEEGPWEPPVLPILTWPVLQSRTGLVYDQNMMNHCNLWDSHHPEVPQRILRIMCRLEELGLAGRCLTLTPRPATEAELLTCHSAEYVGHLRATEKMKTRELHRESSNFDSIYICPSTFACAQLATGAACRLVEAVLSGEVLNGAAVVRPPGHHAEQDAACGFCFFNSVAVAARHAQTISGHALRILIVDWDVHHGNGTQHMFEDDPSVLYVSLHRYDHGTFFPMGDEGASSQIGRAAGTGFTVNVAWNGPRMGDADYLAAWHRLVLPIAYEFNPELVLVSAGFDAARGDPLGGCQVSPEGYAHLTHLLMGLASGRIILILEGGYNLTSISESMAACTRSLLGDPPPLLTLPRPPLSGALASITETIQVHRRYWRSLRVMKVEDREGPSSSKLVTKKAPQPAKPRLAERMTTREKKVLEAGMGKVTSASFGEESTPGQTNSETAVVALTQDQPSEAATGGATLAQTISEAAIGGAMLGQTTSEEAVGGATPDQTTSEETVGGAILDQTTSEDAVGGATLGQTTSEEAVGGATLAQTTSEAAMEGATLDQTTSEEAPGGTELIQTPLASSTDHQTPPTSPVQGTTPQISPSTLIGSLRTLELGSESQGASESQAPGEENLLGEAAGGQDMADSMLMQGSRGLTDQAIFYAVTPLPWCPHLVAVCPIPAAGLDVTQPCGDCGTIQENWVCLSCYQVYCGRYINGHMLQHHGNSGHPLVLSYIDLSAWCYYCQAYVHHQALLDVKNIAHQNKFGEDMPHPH

4T1 [13] = assay: Induction of apoptosis in mouse 4T1 cells assessed as early apoptotic cells at 10 uM measured after 48 hrs by annexin V-FITC/propidium iodide staining based flow cytometry (reference value: 1.12%); type: functional
4T1 [14] = assay: Induction of apoptosis in mouse 4T1 cells assessed as necrotic cells at 10 uM measured after 48 hrs by annexin V-FITC/propidium iodide staining based flow cytometry (reference value: 4.35%); type: functional
MDA-MB-231 [15] = assay: Induction of apoptosis in human MDA-MB-231 cells assessed as early apoptotic cells at 10 uM measured after 48 hrs by annexin V-FITC/propidium iodide staining based flow cytometry (reference value: 3.09%); type: functional

Sequence of Tyrosine-protein kinase JAK2 (O60674 whole entry): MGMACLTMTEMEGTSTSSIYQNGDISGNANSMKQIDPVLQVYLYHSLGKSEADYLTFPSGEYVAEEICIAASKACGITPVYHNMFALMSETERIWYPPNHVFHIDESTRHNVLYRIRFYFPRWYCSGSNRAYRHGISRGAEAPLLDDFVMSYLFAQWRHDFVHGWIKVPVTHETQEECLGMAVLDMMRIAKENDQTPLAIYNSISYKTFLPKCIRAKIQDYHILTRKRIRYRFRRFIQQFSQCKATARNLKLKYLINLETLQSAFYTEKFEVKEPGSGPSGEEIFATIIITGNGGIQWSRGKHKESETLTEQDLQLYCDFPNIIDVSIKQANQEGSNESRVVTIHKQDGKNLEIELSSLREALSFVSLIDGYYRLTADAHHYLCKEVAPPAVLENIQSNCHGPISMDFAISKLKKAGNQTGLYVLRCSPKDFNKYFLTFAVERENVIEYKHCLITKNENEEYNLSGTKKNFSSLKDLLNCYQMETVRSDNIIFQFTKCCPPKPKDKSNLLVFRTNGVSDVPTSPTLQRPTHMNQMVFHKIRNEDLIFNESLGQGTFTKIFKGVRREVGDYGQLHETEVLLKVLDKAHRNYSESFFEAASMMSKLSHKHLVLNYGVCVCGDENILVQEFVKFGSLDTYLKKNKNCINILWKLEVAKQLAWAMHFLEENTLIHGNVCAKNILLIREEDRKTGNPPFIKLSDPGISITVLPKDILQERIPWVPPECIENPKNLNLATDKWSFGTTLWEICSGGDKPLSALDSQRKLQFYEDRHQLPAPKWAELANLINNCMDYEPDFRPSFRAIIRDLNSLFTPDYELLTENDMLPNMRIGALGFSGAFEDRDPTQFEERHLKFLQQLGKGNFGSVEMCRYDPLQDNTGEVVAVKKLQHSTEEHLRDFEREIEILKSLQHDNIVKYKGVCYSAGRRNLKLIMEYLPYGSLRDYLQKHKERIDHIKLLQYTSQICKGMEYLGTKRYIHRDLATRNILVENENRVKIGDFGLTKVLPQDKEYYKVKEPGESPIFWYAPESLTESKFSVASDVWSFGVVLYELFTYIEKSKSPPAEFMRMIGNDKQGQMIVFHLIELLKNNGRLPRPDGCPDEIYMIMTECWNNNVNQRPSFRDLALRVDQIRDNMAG

| Compound | Activity (MDA-MB-231 [1]) [%] | Activity (4T1 [2]) [%] | Activity (4T1 [3]) [%] | inhibition [4] | Activity (4T1 [5]) [%] | Activity (MDA-MB-231 [6]) [%] | Activity (4T1 [7]) [%] | Activity (4T1 [8]) [%] | TGI (MDA-MB-231 [9]) [%] | Activity (4T1 [10]) [%] | Activity (MDA-MB-231 [11]) [%] | inhibition [12] | Activity (4T1 [13]) [%] | Activity (4T1 [14]) [%] | Activity (MDA-MB-231 [15]) [%] |
| --- | --- | --- | --- | --- | --- | --- | --- | --- | --- | --- | --- | --- | --- | --- | --- |
| O=C(CCCCCCC(=O)Nc1ccccc1)NO [VORINOSTAT] | 25.8 | 65.2 | 28.6 | inactive | 1.23 | 57.3 | 4.98 |  |  |  |  |  |  |  |  |
| N#CC[C@H](C1CCCC1)n1cc(-c2ncnc3[nH]ccc23)cn1 [RUXOLITINIB] |  |  |  |  |  |  |  | 89 | 12 | 4 | 6.09 | inactive | 2.04 | 4.98 | 6.09 |
